US4782074A (priority 1987, dated 1988)

Key:
Format in all cases: in vivo
Plasmopara viticola = assay: Grape Downy Mildew control (Example E); settings: detached grape leaves, cultivar Emperor, relative to untreated check plants, read-out: % Control GDM
Method: The compounds of the invention were tested for the control of the Grape Downy Mildew organism Plasmopara viticola. Detached leaves, between 70 mm and 85 mm in diameter, 7-week-old Vitis vinifera cultivar Emperor grape seedlings were used as hosts. The leaves were sprayed with a 250-ppm solution of the test compound in acetone. The sprayed leaves were dried, inoculated with a spore suspension of the organism, placed in a humid environmental chamber and incubated at 66° F. to 68° F. and about 100% relative humidity. After incubation for 2 days, the plants were then held in a greenhouse 7 to 9 days; then the amount of disease control was determined. The percent disease control provided by a given test compound was based on the percent disease reduction relative to untreated check plants.

Erysiphe polygoni = assay: Bean Powdery Mildew control (Example A); settings: 240 h, seedling bean plants, inoculated 1 day after spray, 10 days, relative to untreated check plants, read-out: % Control BPM
Method: The compounds of the invention were tested for the control of the Bean Powdery Mildew organism Erysiphe polygoni. Seedling bean plants were sprayed with a 250-ppm solution of the test compound in acetone, water and a nonionic emusifier. The sprayed plants were then inoculated 1 day later with the organism. The plants were maintained for 10 days at temperatures of 68° F. at night with daytime temperatures of 72° F. to 80° F.; relative humidity was maintained at 40% to 60%. The percent disease control provided by a given test compound was based on the percent disease reduction relative to the untreated check plants.

Piricularia oryzae = assay: whole plant or invertebrate; settings: Pyricularia oryzae, read-out: % Control RB
Septoria apii = assay: whole plant or invertebrate; settings: 336 h, read-out: % Control CLB
Phytophthora infestans = assay: whole plant or invertebrate; settings: in Solanum lycopersicum, 168 h, read-out: % Control TLB
Uromyces phaseoli tipica = assay: Leaf Rust / Bean Rust control (Example F); settings: 336 h, pinto bean plants, rated after about 14 days, relative to untreated check plants, read-out: % Control BR
Method: The Leaf Rust test was made using pinto beans. The pathogen was Uromyces phaseoli tipica. The pinto bean plants were sprayed with a 250-ppm solution of the test compound in an acetone-water mixture containing a nonionic emulsifier. The treated plants were inoculated thereafter with the pathogen and then incubated in an environmental chamber for approximately 20 hours at 100% relative humidity and a temperature of 68° F. to 70° F. The plants were then removed from the chamber, allowed to dry, and then maintained in a greenhouse at a 60% to 80% relative humidity. The rate of infection on the leaves was made after about 14 days. The percent disease control provided by a given test compound was based on the percent disease reduction relative to untreated check plants.

[1] = system: Alternaria solani conidia; assay: Tomato Early Blight control (Example D); settings: 288 h, tomato seedlings, Bonny Best, inoculated 1 day after spray, relative to untreated check plants, read-out: % Control TEB
Method: Compounds of the invention were tested for the control of the Tomato Early Blight organism Alternaria solani conidia. Tomato (variety Bonny Best) seedlings of 6- to 7-weeks old were used. The tomato plants were sprayed with a 250-ppm solution of the test compound in an acetone-and-water solution containing a small amount of a nonionic emulsifier. The sprayed plants were inoculated 1 day later with the organism, placed in the environmental chamber and incubated at 66° F. to 68° F. and 100% relative humidity for 24 hours. Following the incubation, the plants were maintained in a greenhouse for about 12 days. Percent disease control was based on the percent disease development on untreated check plants.

| Compound | pest or weed control at 250 ppm (Plasmopara viticola) | pest or weed control at 250 ppm (Erysiphe polygoni) | pest or weed control at 625 ppm (Piricularia oryzae) | pest or weed control at 250 ppm (Septoria apii) | pest or weed control at 250 ppm (Phytophthora infestans) | pest or weed control at 250 ppm (Uromyces phaseoli tipica) | pest or weed control at 250 ppm [1] |
| --- | --- | --- | --- | --- | --- | --- | --- |
| CCCN(CCCc1c(Cl)cccc1Cl)C(=O)c1cccnc1 [Compound 22, N-[3-(2,6-dichlorophenyl)propyl], N-(n-propyl)nicotine amide] | 7% | 44% | 0% | 38% | 0% | 0% | 88% |
| CCCN(CC(C)Cc1ccc(C(C)(C)C)cc1)C(=O)c1cccnc1 (centres unmarked) [Compound 23] | 0% | 100% | 0% | 29% | 7% | 0% | 33% |
| CCCN(CC(C)Cc1ccc(C(C)(C)C)cc1)C(=O)c1cnccn1 (centres unmarked) [Compound 24] | 7% | 72% | 0% | 17% | 4% | 0% | 8% |
| CCCN(CCCc1c(Cl)cccc1Cl)C(=O)c1cnccn1 [Compound 25] | 0% | 28% | 0% | 8% | 0% | 0% | 29% |
| CCCN(CCCc1ccc(Cl)cc1Cl)C(=O)c1cnccn1 [Compound 26] | 13% | 11% | 21% | 10% | 4% | 3% | 0% |
| CCCN(CCCc1ccc(Cl)cc1Cl)C(=O)c1cccnc1 [Compound 27] | 0% | 82% | 71% | 35% | 0% | 3% | 57% |
| CCCN(Cc1c(Cl)cccc1Cl)C(=O)c1cnccn1 [Compound 28] | 3% | 92% | 0% | 30% | 4% | 7% | 27% |
| O=C(c1cccnc1)N(CCO)CCOc1c(Cl)cc(Cl)cc1Cl [Compound 30] | 54% | 33% | 0% | 32% | 7% | 0% | 17% |
| O=C(c1cnccn1)N(CCO)CCOc1c(Cl)cc(Cl)cc1Cl [Compound 31] | 29% | 0% | 0% | 0% | 0% | 0% | 42% |
| C=CCN(CCOc1c(Cl)cc(Cl)cc1Cl)C(=O)c1cccnc1 [Compound 32, N-allyl, N-(3-pyridylcarbonyl)ethanolamine 2,4,6-trichlorophenylether] | 41% | 4% | 0% | 0% | 0% | 0% | 0% |
| CCOCCN(CCOc1c(Cl)cc(Cl)cc1Cl)C(=O)c1cccnc1 [Compound 33] | 18% | 88% | 0% | 54% | 0% | 0% | 52% |
| CCOCCN(CCOc1c(Cl)cc(Cl)cc1Cl)C(=O)c1cnccn1 [Compound 34] | 7% | 0% | 38% | 15% | 0% | 0% | 0% |
| CCN(CCOc1c(Cl)cc(Cl)cc1Cl)C(=O)c1cccnc1 [Compound 35] | 41% | 100% | 96% | 98% | 0% | 0% | 30% |
| CCN(CCOc1c(Cl)cc(Cl)cc1Cl)C(=O)c1cnccn1 [Compound 36] | 45% | 75% | 0% | 50% | 0% | 0% | 0% |
